Series [1] in a line: Cyto-toxicity (MTT assay). In kind it is cell-based. On the technique in general: Formazan colour is commonly taken as a measure of viable cells.
Series [2] in a line: Single dose oral pharmacokinetic study. The class given is in vivo. To be noted: mouse, Mice oral PK @30 mg/kg, plasma, vehicle 10% Solutol+20% PEG; for AUC(0-t): read-out: AUC0-t; for Cmax: read-out: Cmax. As to the method: The test item was administered through oral route to animals (rat/mice) at 30 mg/kg dose in a suitable vehicle (10% Solutol+20% PEG) at 10 ml/kg dose volume. Blood samples (˜50 μL at each time point) were collected from retro-orbital plexus using K3 EDTA as anticoagulant in eppendorf tubes at defined time intervals 30 minutes, 1 hour, 2 hour, 4 hour, 8 hour, 24 hour & 48 hour under light ether anaesthesia. The samples were centrifuged at 3500×g to separate plasma and stored at −80° C. until analysis. Plasma 25 μl for Mice were processed as per described in sample preparation.
Standard solutions of the test compound 1 mg/mL solutions were prepared in DMSO and further dilutions were made in methanol. […] To the test compound plasma extraction was carried out using Acetonitrile precipitation. After reconstitution with solvent (50% Acetonitrile in Buffer) samples were analyzed by LCMSMS to get the concentrations to calculate PK Parameters.

Structures are written as SMILES.

A word on the viability: it is the share of living cells, or the viability signal relative to a control. Low values mean a greater loss of cells, high ones better survival. Broadly, the Cmax is the peak of the concentration-time curve.

Regarding `CC(C)C1=C2[C@H]3CC[C@@H]4[C@@]5(C)CC[C@H](OC(=O)[C@H]6C[C@@H](C(=O)O)C6(C)C)C(C)(C)[C@@H]5CC[C@@]4(C)[C@]3(C)CC[C@@]2(NC(=O)C2(NC(=O)c3ccc(Cl)cc3)CCCCC2)CC1=O` [Example 48, (1R,3S)-3-((((3aR,5aR,5bR,7aR,9S,11aR,11bR,13aS)-3a-(1-(4-chlorobenzamido)cyclohexane-1-carboxamido)-1-isopropyl-5a,5b,8,8,11a-pentamethyl-2-oxo-3,3a,4,5,5a,5b,6,7,7a,8,9,10,11,11a,11b,12,13,13a-octadecahydro-2H-cyclopenta[a]chrysen-9-yl)oxy)carbonyl)-2,2-dimethylcyclobutane-1-carboxylic acid], in series [1], the viability at 4 days, 0.01 µM was found to be 44%; the viability at 4 days, 0.1 µM stood at 12%; the viability at 4 days, 1 µM came to 4%. Besides, in series [2], the AUC(0-t) turned out to be 477 µg·h/mL and the Cmax was determined as 20300 ng/mL.
In series [1], `Cc1ccc(-c2nc3cc(C(=O)NC(C)(C)C(=O)N[C@@]45CC[C@]6(C)[C@H](CC[C@@H]7[C@@]8(C)CC[C@H](OC(=O)[C@H]9C[C@@H](C(=O)O)C9(C)C)C(C)(C)[C@@H]8CC[C@]76C)C4=C(C(C)C)C(=O)C5)ccc3[nH]2)cn1` [Example 13, (1R,3S)-3-((((3aR,5aR,5bR,7aR,9S,11aR,11bR,13aS)-1-isopropyl-5a,5b,8,8,11a-pentamethyl-3a-(2-methyl-2-(2-(6-methylpyridin-3-yl)-1H-benzo[d]imidazole-5-carboxamido)propanamido)-2-oxo-3,3a,4,5,5a,5b,6,7,7a,8,9,10,11,11a,11b,12, 13,13a-octadecahydro-2H-cyclopenta[a]chrysen-9-yl)oxy)carbonyl)-2,2-dimethylcyclobutane-1-carboxylic acid] displayed a viability at 4 days, 0.01 µM of 45%; a viability at 4 days, 0.1 µM of 10%; a viability at 4 days, 1 µM of 4%. For the same compound, in series [2], the AUC(0-t) came to 18.2 µg·h/mL and the Cmax was determined as 2720 ng/mL.
In series [1], `Cc1ccc(C(=O)NC2(C(=O)N[C@@]34CC[C@]5(C)[C@H](CC[C@@H]6[C@@]7(C)CC[C@H](OC(=O)[C@H]8C[C@@H](C(=O)O)C8(C)C)C(C)(C)[C@@H]7CC[C@]65C)C3=C(C(C)C)C(=O)C4)CCCC2)cn1` [Example 47, (1R,3S)-3-((((3aR,5aR,5bR,7aR,9S,11aR,11bR,13aS)-1-isopropyl-5a,5b,8,8,11a-pentamethyl-3a-(1-(6-methylnicotinamido)cyclopentane-1-carboxamido)-2-oxo-3,3a,4,5,5a,5b,6,7,7a,8,9,10,11,11a,11b,12,13,13a-octadecahydro-2H-cyclopenta[a]chrysen-9-yl)oxy)carbonyl)-2,2-dimethylcyclobutane-1-carboxylic acid] yielded a viability at 4 days, 0.01 µM of 75%; a viability at 4 days, 0.1 µM of 14%; a viability at 4 days, 1 µM of 4%. Moreover, in series [2], the AUC(0-t) is 538 µg·h/mL and the Cmax was found to be 23600 ng/mL.
The like results for `Cc1occc1C(=O)NC(C)(C)C(=O)N[C@@]12CC[C@]3(C)[C@H](CC[C@@H]4[C@@]5(C)CC[C@H](OC(=O)[C@H]6C[C@@H](C(=O)O)C6(C)C)C(C)(C)[C@@H]5CC[C@]43C)C1=C(C(C)C)C(=O)C2` [Example 30, (1R,3S)-3-((((3aR,5aR,5bR,7aR,9S,11aR,11bR,13aS)-1-isopropyl-5a,5b,8,8,11a-pentamethyl-3a-(2-methyl-2-(2-methylfuran-3-carboxamido)propan amido)-2-oxo-3,3a,4,5,5a,5b,6,7,7a,8,9,10,11,11a,11b,12,13,13a-octadecahydro-2H-cyclopenta[a]chrysen-9-yl)oxy)carbonyl)-2,2-dimethylcyclobutane-1-carboxylic acid] were, in that order, 30%, 3%, 2%, 477 µg·h/mL and 23000 ng/mL.
For `CC(C)C1=C2[C@H]3CC[C@@H]4[C@@]5(C)CC[C@H](OC(=O)[C@H]6C[C@@H](C(=O)O)C6(C)C)C(C)(C)[C@@H]5CC[C@@]4(C)[C@]3(C)CC[C@@]2(NC(=O)C(C)(C)NC(=O)CN(C)C)CC1=O` [Example 59, (1R,3S)-3-((((3aR,5aR,5bR,7aR,9S,11aR,11bR,13aS)-3a-(2-(2-(dimethylamino)acetamido)-2-methylpropanamido)-1-isopropyl-5a,5b,8,8,11a-pentamethyl-2-oxo-3,3a,4,5,5a,5b,6,7,7a,8,9,10,11,11a,11b,12,13,13a-octadecahydro-2H-cyclopenta[a]chrysen-9-yl)oxy)carbonyl)-2,2-dimethylcyclobutane-1-carboxylic acid], in series [1], the viability at 4 days, 0.01 µM was 94%; the viability at 4 days, 0.1 µM is 15%; the viability at 4 days, 1 µM is 8%. For the same compound, in series [2], the AUC(0-t) is 186 µg·h/mL and the Cmax came to 13900 ng/mL.
In series [1], `CC(C)C1=C2[C@H]3CC[C@@H]4[C@@]5(C)CC[C@H](OC(=O)[C@H]6C[C@@H](C(=O)O)C6(C)C)C(C)(C)[C@@H]5CC[C@@]4(C)[C@]3(C)CC[C@@]2(NC(=O)C(C)(C)NC(=O)c2ccc(F)cc2)CC1=O` [Example 22, (1R,3S)-3-((((3aR,5aR,5bR,7aR,9S,11aR,11bR,13aS)-3a-(2-(4-fluorobenzamido)-2-methylpropanamido)-1-isopropyl-5a,5b,8,8,11a-pentamethyl-2-oxo-3,3a, 4,5,5a,5b,6,7,7a,8,9,10,11,11a,11b,12,13,13a-octadecahydro-2H-cyclopenta[a]chrysen-9-yl)oxy)carbonyl)-2,2-dimethylcyclobutane-1-carboxylic acid] yielded a viability at 4 days, 0.01 µM of 21%; a viability at 4 days, 0.1 µM of 3%; a viability at 4 days, 1 µM of 3%. Besides, in series [2], the AUC(0-t) amounted to 490 µg·h/mL and the Cmax was 23600 ng/mL.
Regarding `CC(C)C1=C2[C@H]3CC[C@@H]4[C@@]5(C)CC[C@H](OC(=O)[C@H]6C[C@@H](C(=O)O)C6(C)C)C(C)(C)[C@@H]5CC[C@@]4(C)[C@]3(C)CC[C@@]2(NC(=O)C2(NC(=O)c3ccc(Cl)cc3)CCCC2)CC1=O` [Example 46, (1R,3S)-3-((((3aR,5aR,5bR,7aR,9S,11aR,11bR,13aS)-3a-(1-(4-chlorobenzamido)cyclopentane-1-carboxamido)-1-isopropyl-5a,5b,8,8,11a-pentamethyl-2-oxo-3,3a,4,5,5a,5b,6,7,7a,8,9,10,11,11a,11b,12,13,13a-octadecahydro-2H-cyclopenta[a]chrysen-9-yl)oxy)carbonyl)-2,2-dimethylcyclobutane-1-carboxylic acid], in series [1], the viability at 4 days, 0.01 µM is 52%; the viability at 4 days, 0.1 µM was 12%; the viability at 4 days, 1 µM amounted to 4%. For the same compound, in series [2], the AUC(0-t) turned out to be 836 µg·h/mL and the Cmax was found to be 29500 ng/mL.
The like results for `CC(C)C1=C2[C@H]3CC[C@@H]4[C@@]5(C)CC[C@H](OC(=O)[C@H]6C[C@@H](C(=O)O)C6(C)C)C(C)(C)[C@@H]5CC[C@@]4(C)[C@]3(C)CC[C@@]2(NC(=O)C(C)(C)NC(=O)c2ccc(N)nc2)CC1=O` [Example 6, (1R,3S)-3-((((3aR,5aR,5bR,7aR,9S,11aR,11bR,13aS)-3a-(2-(6-aminonicotinamido)-2-methylpropanamido)-1-isopropyl-5a,5b,8,8,11a-pentamethyl-2-oxo-3,3a,4,5,5a,5b,6,7,7a,8,9,10,11,11a,11b,12,13,13a-octadecahydro-2H-cyclopenta[a]chrysen-9-yl)oxy)carbonyl)-2,2-dimethylcyclobutane-1-carboxylic acid] were, in that order, 60%, 19%, 4%, 100 µg·h/mL and 11100 ng/mL.
On to `Cc1ccc(C(=O)NC2(C(=O)N[C@@]34CC[C@]5(C)[C@H](CC[C@@H]6[C@@]7(C)CC[C@H](OC(=O)[C@H]8C[C@@H](C(=O)O)C8(C)C)C(C)(C)[C@@H]7CC[C@]65C)C3=C(C(C)C)C(=O)C4)CCCCC2)cc1` [Example 50, (1R,3S)-3-((((3aR,5aR,5bR,7aR,9S,11aR,11bR,13aS)-1-isopropyl-5a,5b,8,8,11a-pentamethyl-3a-(1-(4-methylbenzamido)cyclohexane-1-carboxamido)-2-oxo-3,3a,4,5,5a,5b,6,7,7a,8,9,10,11,11a,11b,12,13,13a-octadecahydro-2H-cyclopenta[a]chrysen 9-yl)oxy)carbonyl)-2,2-dimethylcyclobutane-1-carboxylic acid], for which, in series [1], the viability at 4 days, 0.01 µM stood at 21%; the viability at 4 days, 0.1 µM was 0%; the viability at 4 days, 1 µM is 0%. Also, in series [2], the AUC(0-t) turned out to be 454 µg·h/mL and the Cmax came to 23300 ng/mL.
`CC(C)C1=C2[C@H]3CC[C@@H]4[C@@]5(C)CC[C@H](OC(=O)[C@H]6C[C@@H](C(=O)O)C6(C)C)C(C)(C)[C@@H]5CC[C@@]4(C)[C@]3(C)CC[C@@]2(NC(=O)C(C)(C)NC(=O)c2ccoc2)CC1=O` [Example 24, (1R,3S)-3-((((3aR,5aR,5bR,7aR,9S,11aR,11bR,13aS)-3a-(2-(furan-3-carboxamido)-2-methylpropanamido)-1-isopropyl-5a,5b,8,8,11a-pentamethyl-2-oxo-3,3a,4,5,5a,5b,6,7,7a,8,9,10,11,11a,11b,12,13,13a-octadecahydro-2H-cyclopenta[a]chrysen-9-yl)oxy)carbonyl)-2,2-dimethylcyclobutane-1-carboxylic acid]: in series [1], the viability at 4 days, 0.01 µM amounted to 69%; the viability at 4 days, 0.1 µM stood at 21%; the viability at 4 days, 1 µM was found to be 6%. For the same compound, in series [2], the AUC(0-t) stood at 428 µg·h/mL and the Cmax stood at 29600 ng/mL.

The record behind these values is patent US20170008921A1, “C-3 NOVEL TRITERPENONE WITH C-28 REVERSE AMIDE DERIVATIVES AS HIV INHIBITORS” (HETERO RESEARCH FOUNDATION, priority 2015, published 2017).
